Where two headings read alike, the source gives them in different places.
Assays:
[1] = Charge class Q, dominant calculated charge state at pH 7.4; type: physicochemical
[2] = in vivo
[3] = In combo PAMPA-BBB model, calculated log Po in situ
[4] = PAMPA; for Pm^7.4: pH 7.4
[5] = in vivo; cited from earlier work
[6] = in vivo; cited from earlier work; remark: listed apart in the source
[7] = mouse, in vivo; cited from earlier work
[8] = mouse, in vivo
Double-Sink PAMPA = settings: intrinsic permeability, Type DS, Double-Sink PAMPA data scaled to the 3 μL level
[9] = In situ brain perfusion, individual literature values; settings: efflux inhibition column: Kd; from literature PS
[10] = dominant calculated concentration fraction of the drug in a charge state

SMILES | Q (charge class) [1] | log Po^in situ (obs) [2] | obs–calc (log Po^in situ) [3] | log PABL [4] | log Po [4] | log Ppara [4] | Pm^7.4 [4] | log BB (brain-to-plasma total concentration ratio) [5] | PS [6] | log PS [6] | pKa (physchem) | PS [7] | log PS [7] | log Po^in situ (obs) [8] | Q (charge class) [1, 10] | log Po (Double-Sink PAMPA) | obs–calc (log Po^in situ) ([3]; no efflux inhibition) | log Po^in situ (obs) [9] | obs–calc (log Po^in situ) ([3]; efflux inhibition column: Kd) | obs–calc (log Po^in situ) ([3]; efflux inhibition mdr1a(−/−))
COc1ccc2c3c1O[C@H]1[C@@H](O)C=C[C@H]4[C@@H](C2)N(C)CC[C@@]341 [Codeine] | + | −3.80 | −0.2 | −4.69 | −3.68 | −7.16 | 27 | 0.55 | 33 10^−4 mLg^−1s^−1 | −2.48 |  |  |  |  |  |  |  |  |  | 
COc1ccc2c3c1O[C@H]1C[C@@H](O)C=C[C@@]31CCN(C)C2 [Galanthamine] | + | −3.24 | 0.2 | −4.89 | −3.41 | −7.73 | 22 | 0.00 | 33 10^−4 mLg^−1s^−1 | −2.48 | 8.62 | 35 10^−4 mLg^−1s^−1 | −2.46 | −3.21 |  |  |  |  |  | 
O=C(O)c1ccccc1O [Salicylic Acid] |  |  |  |  |  |  |  |  |  |  |  |  |  |  | − | −3.34 | 0.9 |  |  | 
CCCC(CCC)C(=O)O [Valproic Acid] |  |  |  |  |  |  |  |  | 93 10^−4 mLg^−1s^−1 | −2.03 |  |  |  |  | − | −3.77 |  | −2.54 | −0.2 | −0.2

Reference: article PMC3034772 (Pharmaceutical research, 2010)
